What all share (assay type): biochemical
For one assay, the target named is T1, Ret-1 (Homo sapiens, UniProt P07949).
T1 construct: Kinases are expressed as either kinase domains or full length constructs; made in house
The assay is described as follows: Kinase inhibition assay (33P transfer), Ret. The note with it: Table 6, Ret-1 kinase inhibition class.

A further assay concerns the target T2, Zap-70 (Homo sapiens, UniProt P43403).
T2 construct: Kinases are expressed as either kinase domains or full length constructs; made in house
T2 sequence (P43403 1-619): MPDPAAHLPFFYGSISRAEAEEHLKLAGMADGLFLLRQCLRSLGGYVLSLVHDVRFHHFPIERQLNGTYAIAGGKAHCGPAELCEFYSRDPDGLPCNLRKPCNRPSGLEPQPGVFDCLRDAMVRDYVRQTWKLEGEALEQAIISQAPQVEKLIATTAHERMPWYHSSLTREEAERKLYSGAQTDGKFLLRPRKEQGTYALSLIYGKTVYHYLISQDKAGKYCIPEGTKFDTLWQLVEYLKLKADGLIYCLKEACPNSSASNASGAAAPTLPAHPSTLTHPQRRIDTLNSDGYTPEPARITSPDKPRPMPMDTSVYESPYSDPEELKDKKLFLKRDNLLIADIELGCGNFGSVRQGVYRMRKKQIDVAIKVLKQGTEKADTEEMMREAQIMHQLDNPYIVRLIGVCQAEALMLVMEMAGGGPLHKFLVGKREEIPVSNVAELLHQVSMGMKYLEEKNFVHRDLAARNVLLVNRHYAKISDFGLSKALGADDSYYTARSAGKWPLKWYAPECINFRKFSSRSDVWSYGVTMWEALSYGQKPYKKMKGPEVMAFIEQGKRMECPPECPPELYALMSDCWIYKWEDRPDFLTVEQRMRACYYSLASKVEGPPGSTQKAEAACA
The assay is described as follows: Kinase inhibition assay (33P transfer), Zap-70. As to conditions: Table 3; read-out: Zap-1. In a few lines:
(§1)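 Radiometric readout: 33P incorporated into surface-bound poly(Glu,Tyr) 4:1 or poly(Arg,Ser) 3:1 is counted by liquid scintillation after a 0.5% phosphoric acid wash. Enzymes were GST or polyHis fusions (kinase domain or full length) from E. coli or High Five insect cells.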

Another assay deals with T3, Itk (Homo sapiens, UniProt Q08881).
T3 construct: Kinases are expressed as either kinase domains or full length constructs; made in house
T3 sequence (Q08881 1-620): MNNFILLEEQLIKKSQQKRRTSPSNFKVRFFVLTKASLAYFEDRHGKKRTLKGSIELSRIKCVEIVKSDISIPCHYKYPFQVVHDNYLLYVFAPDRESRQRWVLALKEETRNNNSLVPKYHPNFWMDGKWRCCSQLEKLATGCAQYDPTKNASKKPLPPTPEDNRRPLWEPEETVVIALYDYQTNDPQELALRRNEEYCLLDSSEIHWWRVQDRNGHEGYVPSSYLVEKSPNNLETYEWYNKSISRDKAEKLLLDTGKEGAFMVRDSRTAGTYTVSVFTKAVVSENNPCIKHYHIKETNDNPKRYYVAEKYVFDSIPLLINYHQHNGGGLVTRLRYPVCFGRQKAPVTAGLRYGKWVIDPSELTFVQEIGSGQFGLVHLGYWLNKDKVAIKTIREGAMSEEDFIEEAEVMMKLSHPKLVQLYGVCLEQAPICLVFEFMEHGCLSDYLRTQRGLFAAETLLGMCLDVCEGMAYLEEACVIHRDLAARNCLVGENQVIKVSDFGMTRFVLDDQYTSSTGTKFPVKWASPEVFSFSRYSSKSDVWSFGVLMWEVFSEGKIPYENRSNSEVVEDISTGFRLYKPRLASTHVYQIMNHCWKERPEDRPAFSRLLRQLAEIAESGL
The assay is described as follows: Kinase inhibition assay (33P transfer), Itk. The note with it: Table 3; read-out: Itk-1. In a few lines: (§2)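 IC50: inhibitor concentration lowering 33P incorporation into immobilised substrate by 50%. Label transferred from ATP to poly(Glu,Tyr) 4:1 or poly(Arg,Ser) 3:1 is measured after a 0.5% phosphoric acid wash by liquid scintillation.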

For the next assay, the target named is T4, Kdr (Homo sapiens, UniProt P35968).
T4 construct: Kinases are expressed as either kinase domains or full length constructs; made in house
Briefly: Kinase inhibition assay (33P transfer), Kdr. The note with it: Table 3; read-out: KDR-1. In short, it runs like this: as §1

For a further assay, the target named is T5, ErbB2 (Homo sapiens, UniProt P04626).
T5 construct: Kinases are expressed as either kinase domains or full length constructs; made in house
Briefly: Kinase inhibition assay (33P transfer), ErbB2. The note with it: read-out: ErbB2-2. In a few lines: as §2

Structures are written as SMILES.

T4 sequence (P35968 20-1356, species assumed): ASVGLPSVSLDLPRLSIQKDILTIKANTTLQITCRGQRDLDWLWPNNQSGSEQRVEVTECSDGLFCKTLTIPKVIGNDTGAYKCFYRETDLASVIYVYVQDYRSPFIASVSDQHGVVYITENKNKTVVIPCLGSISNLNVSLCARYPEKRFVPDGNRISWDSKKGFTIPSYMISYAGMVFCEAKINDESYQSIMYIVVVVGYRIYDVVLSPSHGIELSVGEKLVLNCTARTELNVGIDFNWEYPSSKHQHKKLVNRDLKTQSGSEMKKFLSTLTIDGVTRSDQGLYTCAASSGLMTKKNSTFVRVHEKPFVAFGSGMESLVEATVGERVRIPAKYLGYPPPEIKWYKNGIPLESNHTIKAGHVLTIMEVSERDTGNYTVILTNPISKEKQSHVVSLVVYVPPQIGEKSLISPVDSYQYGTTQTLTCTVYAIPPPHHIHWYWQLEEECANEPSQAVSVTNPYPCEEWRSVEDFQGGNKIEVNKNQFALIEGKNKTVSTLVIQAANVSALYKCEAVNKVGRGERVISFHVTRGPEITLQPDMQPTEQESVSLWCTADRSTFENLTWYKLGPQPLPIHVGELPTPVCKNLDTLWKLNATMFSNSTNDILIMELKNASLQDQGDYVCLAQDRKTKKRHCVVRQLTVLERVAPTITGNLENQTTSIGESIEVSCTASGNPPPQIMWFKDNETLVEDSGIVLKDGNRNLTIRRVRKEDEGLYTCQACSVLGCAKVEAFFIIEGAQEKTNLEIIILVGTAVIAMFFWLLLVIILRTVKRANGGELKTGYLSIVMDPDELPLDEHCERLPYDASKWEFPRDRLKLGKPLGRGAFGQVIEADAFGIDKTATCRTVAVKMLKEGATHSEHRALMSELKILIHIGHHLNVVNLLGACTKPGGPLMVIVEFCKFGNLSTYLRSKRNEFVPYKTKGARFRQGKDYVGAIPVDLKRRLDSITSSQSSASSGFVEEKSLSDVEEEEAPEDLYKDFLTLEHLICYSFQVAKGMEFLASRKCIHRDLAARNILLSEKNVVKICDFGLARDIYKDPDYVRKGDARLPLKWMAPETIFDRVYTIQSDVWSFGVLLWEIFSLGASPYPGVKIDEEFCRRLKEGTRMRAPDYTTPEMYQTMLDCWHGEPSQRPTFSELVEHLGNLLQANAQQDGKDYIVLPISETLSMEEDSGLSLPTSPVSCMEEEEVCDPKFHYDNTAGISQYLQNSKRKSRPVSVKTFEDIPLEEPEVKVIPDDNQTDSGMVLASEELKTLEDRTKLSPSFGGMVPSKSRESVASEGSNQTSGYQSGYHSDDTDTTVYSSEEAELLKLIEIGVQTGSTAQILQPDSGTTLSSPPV
T1 sequence (P07949 29-1114): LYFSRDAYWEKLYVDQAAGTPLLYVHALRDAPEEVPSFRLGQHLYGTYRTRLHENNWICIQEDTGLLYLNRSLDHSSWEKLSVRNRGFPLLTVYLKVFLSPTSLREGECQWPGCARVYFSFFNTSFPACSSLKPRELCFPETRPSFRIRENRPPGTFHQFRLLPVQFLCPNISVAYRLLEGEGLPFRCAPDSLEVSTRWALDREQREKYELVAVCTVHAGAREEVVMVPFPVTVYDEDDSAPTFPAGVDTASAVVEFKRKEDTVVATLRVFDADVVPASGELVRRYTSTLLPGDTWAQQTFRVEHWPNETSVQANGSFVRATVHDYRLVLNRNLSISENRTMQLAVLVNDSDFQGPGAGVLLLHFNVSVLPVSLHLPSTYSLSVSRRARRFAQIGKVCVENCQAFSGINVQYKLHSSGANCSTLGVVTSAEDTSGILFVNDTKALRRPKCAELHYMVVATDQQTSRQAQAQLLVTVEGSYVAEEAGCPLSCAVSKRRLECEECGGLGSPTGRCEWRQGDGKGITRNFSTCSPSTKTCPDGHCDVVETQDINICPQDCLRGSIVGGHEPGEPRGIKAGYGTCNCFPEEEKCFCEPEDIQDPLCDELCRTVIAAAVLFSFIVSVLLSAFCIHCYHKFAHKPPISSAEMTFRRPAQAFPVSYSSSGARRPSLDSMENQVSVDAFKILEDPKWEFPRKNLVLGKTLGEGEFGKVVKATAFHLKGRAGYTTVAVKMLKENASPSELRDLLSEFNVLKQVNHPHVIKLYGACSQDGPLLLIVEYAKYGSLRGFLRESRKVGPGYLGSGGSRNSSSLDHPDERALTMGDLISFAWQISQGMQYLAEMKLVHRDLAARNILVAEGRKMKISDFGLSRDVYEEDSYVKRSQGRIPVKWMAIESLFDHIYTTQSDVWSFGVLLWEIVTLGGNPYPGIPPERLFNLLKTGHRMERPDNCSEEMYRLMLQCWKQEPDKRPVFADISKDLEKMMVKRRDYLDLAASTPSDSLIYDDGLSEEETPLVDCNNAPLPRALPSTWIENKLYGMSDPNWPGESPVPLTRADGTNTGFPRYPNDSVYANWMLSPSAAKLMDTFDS
T5 sequence (P04626 23-1255, species assumed): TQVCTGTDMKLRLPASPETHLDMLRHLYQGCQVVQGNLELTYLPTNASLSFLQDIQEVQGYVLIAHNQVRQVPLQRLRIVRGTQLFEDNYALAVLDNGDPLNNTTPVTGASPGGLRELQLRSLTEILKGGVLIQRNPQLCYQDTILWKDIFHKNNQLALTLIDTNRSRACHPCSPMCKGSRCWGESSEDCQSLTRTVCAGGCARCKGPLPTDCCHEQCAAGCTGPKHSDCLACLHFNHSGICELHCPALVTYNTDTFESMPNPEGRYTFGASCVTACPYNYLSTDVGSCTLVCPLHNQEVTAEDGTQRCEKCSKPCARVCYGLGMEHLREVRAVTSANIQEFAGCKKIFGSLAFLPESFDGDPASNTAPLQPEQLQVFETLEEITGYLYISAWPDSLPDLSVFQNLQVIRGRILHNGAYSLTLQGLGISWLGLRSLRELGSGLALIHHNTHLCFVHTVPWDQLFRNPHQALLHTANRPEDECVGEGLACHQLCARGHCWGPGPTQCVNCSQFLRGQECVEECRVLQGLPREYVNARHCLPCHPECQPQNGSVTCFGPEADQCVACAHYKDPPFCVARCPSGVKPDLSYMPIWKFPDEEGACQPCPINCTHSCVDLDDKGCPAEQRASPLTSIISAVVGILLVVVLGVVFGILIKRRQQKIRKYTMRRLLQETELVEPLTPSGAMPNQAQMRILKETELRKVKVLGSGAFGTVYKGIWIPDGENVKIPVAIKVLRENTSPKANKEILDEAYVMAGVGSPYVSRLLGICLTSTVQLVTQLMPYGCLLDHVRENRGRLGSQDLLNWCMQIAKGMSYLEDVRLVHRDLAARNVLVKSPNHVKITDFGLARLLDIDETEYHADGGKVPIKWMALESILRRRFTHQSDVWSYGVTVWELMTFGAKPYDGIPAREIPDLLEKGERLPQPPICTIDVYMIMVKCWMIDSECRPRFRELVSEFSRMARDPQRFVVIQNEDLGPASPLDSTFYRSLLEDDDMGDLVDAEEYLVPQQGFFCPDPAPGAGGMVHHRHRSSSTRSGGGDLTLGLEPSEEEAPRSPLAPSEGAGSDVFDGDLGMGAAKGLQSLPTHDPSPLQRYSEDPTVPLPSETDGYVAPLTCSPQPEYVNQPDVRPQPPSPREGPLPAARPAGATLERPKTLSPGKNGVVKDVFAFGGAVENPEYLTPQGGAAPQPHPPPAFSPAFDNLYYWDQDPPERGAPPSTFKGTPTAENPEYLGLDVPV

As to `COc1cc(Nc2ncnc(Nc3cccc(C)c3)n2)cc(OC)c1OC` [Compound 64], the IC50 at Ret-1 was more than 12.2 µM; on Zap-70, 9.53 to 12.2 µM; on Itk, more than 12.2 µM; at Kdr, 1.09 to 6.53 µM; on ErbB2, 1.09 to 6.53 µM.
With `COc1cc(Nc2ncnc(Nc3ccccc3)n2)cc(OC)c1OC` [Compound 91], the IC50 is 1.13 to 6.79 µM at Ret-1; more than 12.7 µM at Zap-70; more than 12.7 µM at Itk; 1.13 to 6.79 µM at Kdr; 1.13 to 6.79 µM on ErbB2.

For the origin of these results see patent US7074789B2, “Kinase inhibitors” (Amgen Inc., priority 1999, dated 2006).
